From patent publication US5808060A, “Fused isoindolones” (Cephalon, Inc., priority 1996, dated 1998)

Columns and labels:
[1] = test system: basal forebrain cultures (ChAT activity); assay: Basal Forebrain ChAT Activity Assay; type: cell-based, rat; details: preliminary assays; ChAT assessed 5 days after plating
Experimental: Fused isoindolone derivatives were tested for the ability to increase ChAT activity of basal forebrain cultures.
Methods: The basal forebrain was dissected from rat embryos (day 17 or 18 embryos) and the cells were dissociated with a neutral protease (Dispase™, Collaborative Research). Neurons were plated at a density of 5×10^4 cells/well (1.5×10^5 cells/cm^2) in poly-l-ornithine and laminin coated plates. Cells were cultured in serum-free N2 medium containing 0.05% BSA at 37° C. in a humidified atmosphere, 5% CO2 /95% air. ChAT activity was assessed 5 days after plating by using the ChAT assay as described in Example III(A)(1).

[2] = test system: dissociated rat embryonic spinal cord culture (ChAT activity); assay: Spinal Cord ChAT Activity Assay; type: cell-based; details: after 2-3 hour plating period; single application; ChAT measured 48 hours later; control cultures not treated
Source text: As noted, ChAT is a specific biochemical marker for functional cholinergic neurons. Cholinergic neurons represent the major cholinergic input into the hippocampal formation, olfactory nucleus, interpeduncular nucleus, cortex, amygdala, and parts of the thalamus. In the spinal cord, the motor neurons are cholinergic neurons which contain ChAT (Phelps et al., J. Comp. Neurol. 273: 459-472 (1988)). ChAT activity has been used to study the effects of neurotrophins (e.g., NGF or NT-3) on the survival and/or function of cholinergic neurons. The ChAT assay also serves as an indication of the regulation of ChAT levels within cholinergic neurons.
Fused isoindolone derivatives increased ChAT activity in the dissociated rat embryonic spinal cord culture assay (FIG. 1). […]
Methods: Fetal rat spinal cord cells were dissociated, and experiments were performed as described (Smith et al., J. Cell Biology 101: 1608-1621 (1985); Glicksman et al., J. Neurochem. 61: 210-221 (1993)). […] ChAT activity was measured after 2 days in vitro using a modification of the Fonnum procedure (Fonnum, J. Neurochem. 24: 407-409 (1975)) according to McManaman et al. and Glicksman et al. (McManaman et al., Developmental Biology 125: 311-320 (1988); Glicksman et al., J. Neurochem. 61: 210-221 (1993)).

protein kinase C = assay: PKC Activity Inhibition Assay; type: biochemical
Experimental: Fused isoindolones inhibited the activity of protein kinase C (Table VI). The protein kinase C assay has been disclosed (Murakata et al., U.S. Pat. No. 4,923,986; Kikkawa et al., J. Biol. Chem. 257: 13341-13348 (1982)). The assay was performed with several concentrations of fused isoindolones. The concentration at which protein kinase C was 50% inhibited (IC50) was determined.

trkA tyrosine kinase = trkA tyrosine kinase (Homo sapiens, UniProt P04629); assay: trkA Tyrosine Kinase Activity Inhibition Assay (ELISA); type: biochemical; details: PLCγ/pGEX substrate, 16 μM ATP, 37° C., 15 min, read-out: trk A INHIBITION IC50
Chain of trkA tyrosine kinase (P04629 33-796): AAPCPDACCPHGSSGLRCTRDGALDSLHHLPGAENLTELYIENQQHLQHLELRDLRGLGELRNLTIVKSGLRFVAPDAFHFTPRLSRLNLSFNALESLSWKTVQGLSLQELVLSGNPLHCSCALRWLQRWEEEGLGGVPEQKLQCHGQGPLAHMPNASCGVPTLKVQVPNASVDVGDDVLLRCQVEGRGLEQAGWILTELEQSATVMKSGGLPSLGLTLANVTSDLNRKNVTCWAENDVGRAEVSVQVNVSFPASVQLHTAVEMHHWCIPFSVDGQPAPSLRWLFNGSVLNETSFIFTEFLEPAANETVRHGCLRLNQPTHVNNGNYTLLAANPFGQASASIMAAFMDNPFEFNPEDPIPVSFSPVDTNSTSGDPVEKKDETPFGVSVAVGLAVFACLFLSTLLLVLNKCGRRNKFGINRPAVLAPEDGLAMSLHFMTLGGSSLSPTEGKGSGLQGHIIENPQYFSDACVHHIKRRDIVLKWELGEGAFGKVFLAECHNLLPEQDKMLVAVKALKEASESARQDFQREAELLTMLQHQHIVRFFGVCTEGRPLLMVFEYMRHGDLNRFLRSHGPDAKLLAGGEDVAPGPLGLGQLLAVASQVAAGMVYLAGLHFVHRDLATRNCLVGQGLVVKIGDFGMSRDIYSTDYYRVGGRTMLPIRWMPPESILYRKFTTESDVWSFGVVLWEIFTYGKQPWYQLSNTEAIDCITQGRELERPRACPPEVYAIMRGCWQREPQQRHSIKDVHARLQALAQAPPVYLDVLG
Experimental: Fused isoindolones inhibited trkA tyrosine kinase activity as determined by ELISA. trkA is a high affinity receptor for neurotrophins. Fused isoindolones were added to 96-well microtiter plates that were previously coated with a phosphorylation substrate (phospholipase C-γ (PLCγ)/pGEX fusion protein) (see Rotin, et al., 11 EMBO J. 559, 1992). These compounds were then tested for the ability to inhibit substrate phosphorylation by the trkA tyrosine kinase.
Methods: 96-well ELISA plates (Nunc) were coated with 100 μl/well of the phosphorylation substrate (40 μg/ml) PLCγ/pGEX fusion protein) in 20 mM Tris, pH 7.6, 137 mM NaCl, and 0.02% NaN3 overnight at 4° C. […] Plates were washed three times with TBST, followed by two washes with TBS (TBST sans Tween-20). Fused pyrrolocarbozoles were then added at various concentrations to a reaction mixture (50 mM HEPES, pH 7.4, 5 mM MnCl2, 5 mM MgCl2, 140 mM NaCl, 16 μM ATP, and 15 ng trkA in a total volume of 100 μL.). As a negative control, 100 mM EDTA was included in the reaction solution. The plates were then incubated at 37° C. for 15 min. The detection antibody, monoclonal anti-phosphotyrosine antibody (UBI), was added at a dilution of 1:2000 in TBST, and incubated for 1 hour at 37° C. […] The colored product was read at 490 nm in a microplate reader (Biotek).

Row | Compound | effect on basal forebrain ChAT activity [1] | increased ChAT activity over control cultures (spinal cord) [2] [% over control] | IC50 (protein kinase C) [nM] | IC50 (trkA tyrosine kinase) [nM]
1 | O=C1NC(=O)c2c1c1c3ccccc3sc1c1sc3ccccc3c21 [Compound I-3, Benzothieno[2,3-c]benzothieno[2,3-e]isoindol-1,3-dione] | did not increase ChAT activity | – | – | –
2 | O=C1NCc2c1c1c(c3c2-c2ccccc2C3)Cc2ccccc2-1 [Compound I-2, 1H-Indenyl[2,3-c]-1H-indenyl[2,3-e]-3H-isoindol-1-one] | – | 150 | 2000 | 190
3 | O=C1NC(=O)c2c1c1c(c3c2-c2ccccc2C3)Cc2ccccc2-1 [Compound I-1, 1H-Indenyl[2,3-c]-1H-indenyl[2,3-e]isoindol-1,3-dione] | – | – | 650 | –
4 | O=C1NCc2c1c1c3ccccc3sc1c1sc3ccccc3c21 [Compound I-4, Benzothieno[2,3-c]benzothieno[2,3-e]isoindol-1-one] | did not increase ChAT activity | – | – | –
